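Dose response: 5 concentrations. Exposure: 48 h. Format: 96-well plates. Endpoint: linear interpolation; highest concentration if not reached. GI50: concentration for 50% inhibition of growth.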 Active and inactive are the calls of the source. No stated cut-off is given here; in the data, active = GI50 up to about 1.1 µM and inactive = higher.
How the values were obtained:
Experiment in all cases: NCI anticancer screen, dose series, 48 h
NCI-H522 = tested on: NCI-H522
LXFL 529 = tested on: LXFL 529
SNB-78 = tested on: SNB-78
DMS-114 = tested on: DMS-114
DLD-1 = tested on: DLD-1
HOP-18 = tested on: HOP-18
NCI-H23 = tested on: NCI-H23
IGROV-1 = tested on: IGROV-1
OVCAR-4 = tested on: OVCAR-4
HOP-62 = tested on: HOP-62
HCT-116 = tested on: HCT-116
SF-539 = tested on: SF-539
EKVX = tested on: EKVX
HT-29 = tested on: HT-29
UACC-257 = tested on: UACC-257
SK-MEL-28 = tested on: SK-MEL-28
HCC 2998 = tested on: HCC 2998
HL-60 = tested on: HL-60
SNB-19 = tested on: SNB-19
RPMI-8226 = tested on: RPMI-8226
OVCAR-3 = tested on: OVCAR-3
SF-268 = tested on: SF-268
786-0 = tested on: 786-0
NCI-H460 = tested on: NCI-H460
SK-MEL-2 = tested on: SK-MEL-2
HOP-92 = tested on: HOP-92
U-251 = tested on: U-251
Malme-3M = tested on: Malme-3M
COLO 205 = tested on: COLO 205
TK-10 = tested on: TK-10
LOX IMVI = tested on: LOX IMVI
K562 = tested on: K562
NCI-H226 = tested on: NCI-H226
OVCAR-8 = tested on: OVCAR-8
KM-20L2 = tested on: KM-20L2
SW-620 = tested on: SW-620
A549 = tested on: A549
SN12C = tested on: SN12C
ACHN = tested on: ACHN
A498 = tested on: A498
SF-295 = tested on: SF-295
KM12 = tested on: KM12
SR = tested on: SR
HCT-15 = tested on: HCT-15
RXF 631 = tested on: RXF 631
SNB-75 = tested on: SNB-75
OVCAR-5 = tested on: OVCAR-5
MOLT-4 = tested on: MOLT-4
M19-MEL = tested on: M19-MEL
UO-31 = tested on: UO-31
M14 = tested on: M14
UACC-62 = tested on: UACC-62
SK-OV-3 = tested on: SK-OV-3
SK-MEL-5 = tested on: SK-MEL-5
CCRF-CEM = tested on: CCRF-CEM
CAKI-1 = tested on: CAKI-1
DMS-273 = tested on: DMS-273

**Q.** Which results are given for `CC1(C)C2CCC13CS(=O)(=O)N1O[C@]13C(=O)O2` (stereo not given in full)?
**A.** GI50 (NCI-H522): > 100 µM (inactive); GI50 (LXFL 529): > 100 µM (inactive); GI50 (SNB-78): > 100 µM (inactive); GI50 (DMS-114): > 100 µM (inactive); GI50 (DLD-1): > 100 µM (inactive); GI50 (HOP-18): > 100 µM (inactive); GI50 (NCI-H23): > 100 µM (inactive); GI50 (IGROV-1): > 100 µM (inactive); GI50 (OVCAR-4): > 100 µM (inactive); GI50 (HOP-62): > 100 µM (inactive); GI50 (HCT-116): > 100 µM (inactive); GI50 (SF-539): > 100 µM (inactive); GI50 (EKVX): > 100 µM (inactive); GI50 (HT-29): > 100 µM (inactive); GI50 (UACC-257): > 100 µM (inactive); GI50 (SK-MEL-28): > 100 µM (inactive); GI50 (HCC 2998): > 100 µM (inactive); GI50 (HL-60): > 100 µM (inactive); GI50 (SNB-19): > 100 µM (inactive); GI50 (RPMI-8226): > 100 µM (inactive); GI50 (OVCAR-3): > 100 µM (inactive); GI50 (SF-268): > 100 µM (inactive); GI50 (786-0): > 100 µM (inactive); GI50 (NCI-H460): > 100 µM (inactive); GI50 (SK-MEL-2): > 100 µM (inactive); GI50 (HOP-92): > 100 µM (inactive); GI50 (U-251): > 100 µM (inactive); GI50 (Malme-3M): > 100 µM (inactive); GI50 (COLO 205): > 100 µM (inactive); GI50 (TK-10): > 100 µM (inactive); GI50 (LOX IMVI): > 100 µM (inactive); GI50 (K562): > 100 µM (inactive); GI50 (NCI-H226): > 100 µM (inactive); GI50 (OVCAR-8): > 100 µM (inactive); GI50 (KM-20L2): > 100 µM (inactive); GI50 (SW-620): > 100 µM (inactive); GI50 (A549): > 100 µM (inactive); GI50 (SN12C): > 100 µM (inactive); GI50 (ACHN): > 100 µM (inactive); GI50 (A498): > 100 µM (inactive); GI50 (SF-295): > 100 µM (inactive); GI50 (KM12): > 100 µM (inactive); GI50 (SR): > 100 µM (inactive); GI50 (HCT-15): > 100 µM; GI50 (RXF 631): > 100 µM (inactive); GI50 (SNB-75): 60.8 µM (inactive); GI50 (OVCAR-5): > 100 µM (inactive); GI50 (MOLT-4): > 100 µM (inactive); GI50 (M19-MEL): > 100 µM (inactive); GI50 (UO-31): > 100 µM (inactive)

**Q.** For `Cc1ccc(S(=O)(=O)N/N=C2\C(=O)C3CC2C(Cl)C3Cl)cc1` (stereo not given), which GI50 (M14) is on record?
**A.** > 100 µM (inactive)

**Q.** And the GI50 (LXFL 529)?
**A.** > 100 µM (inactive)

**Q.** What about the GI50 (DMS-114) of the same compound?
**A.** > 100 µM (inactive)

**Q.** What about the GI50 (DLD-1) of the same compound?
**A.** > 100 µM (inactive)

**Q.** What about the GI50 (HOP-18) of the same compound?
**A.** > 100 µM (inactive)

**Q.** What about the GI50 (NCI-H23) of the same compound?
**A.** > 100 µM (inactive)

**Q.** And the GI50 (IGROV-1)?
**A.** > 100 µM (inactive)

**Q.** What about the GI50 (OVCAR-4) of the same compound?
**A.** > 100 µM (inactive)

**Q.** What about the GI50 (HOP-62) of the same compound?
**A.** > 100 µM (inactive)

**Q.** And the GI50 (HCT-116)?
**A.** > 100 µM (inactive)

**Q.** What about the GI50 (HT-29) of the same compound?
**A.** > 100 µM (inactive)

**Q.** What about the GI50 (UACC-257) of the same compound?
**A.** > 100 µM (inactive)

**Q.** What about the GI50 (UACC-62) of the same compound?
**A.** > 100 µM (inactive)

**Q.** And the GI50 (SK-MEL-28)?
**A.** > 100 µM (inactive)

**Q.** What about the GI50 (HCC 2998) of the same compound?
**A.** > 100 µM (inactive)

**Q.** What about the GI50 (HL-60) of the same compound?
**A.** > 100 µM (inactive)

**Q.** And the GI50 (SNB-19)?
**A.** > 100 µM (inactive)

**Q.** What about the GI50 (RPMI-8226) of the same compound?
**A.** > 100 µM (inactive)

**Q.** What about the GI50 (OVCAR-3) of the same compound?
**A.** > 100 µM (inactive)

**Q.** What about the GI50 (SF-268) of the same compound?
**A.** > 100 µM (inactive)

**Q.** And the GI50 (786-0)?
**A.** > 100 µM (inactive)

**Q.** And the GI50 (NCI-H460)?
**A.** > 100 µM (inactive)

**Q.** And the GI50 (SK-OV-3)?
**A.** > 100 µM (inactive)

**Q.** What about the GI50 (HOP-92) of the same compound?
**A.** 70.8 µM (inactive)

**Q.** And the GI50 (U-251)?
**A.** > 100 µM (inactive)

**Q.** What about the GI50 (Malme-3M) of the same compound?
**A.** > 100 µM (inactive)

**Q.** And the GI50 (COLO 205)?
**A.** > 100 µM (inactive)

**Q.** What about the GI50 (TK-10) of the same compound?
**A.** > 100 µM (inactive)

**Q.** And the GI50 (LOX IMVI)?
**A.** > 100 µM (inactive)

**Q.** And the GI50 (K562)?
**A.** > 100 µM (inactive)

**Q.** And the GI50 (SK-MEL-5)?
**A.** > 100 µM (inactive)

**Q.** What about the GI50 (NCI-H226) of the same compound?
**A.** > 100 µM (inactive)

**Q.** And the GI50 (OVCAR-8)?
**A.** > 100 µM (inactive)

**Q.** What about the GI50 (KM-20L2) of the same compound?
**A.** > 100 µM (inactive)

**Q.** What about the GI50 (SW-620) of the same compound?
**A.** > 100 µM (inactive)

**Q.** What about the GI50 (A549) of the same compound?
**A.** > 100 µM (inactive)

**Q.** And the GI50 (SN12C)?
**A.** > 100 µM (inactive)

**Q.** What about the GI50 (ACHN) of the same compound?
**A.** > 100 µM (inactive)

**Q.** And the GI50 (A498)?
**A.** > 100 µM (inactive)

**Q.** What about the GI50 (SF-295) of the same compound?
**A.** > 100 µM (inactive)

**Q.** What about the GI50 (SR) of the same compound?
**A.** > 100 µM (inactive)

**Q.** And the GI50 (HCT-15)?
**A.** > 100 µM

**Q.** What about the GI50 (RXF 631) of the same compound?
**A.** > 100 µM (inactive)

**Q.** And the GI50 (SNB-75)?
**A.** 55 µM (inactive)

**Q.** What about the GI50 (CCRF-CEM) of the same compound?
**A.** > 100 µM (inactive)

**Q.** And the GI50 (CAKI-1)?
**A.** > 100 µM (inactive)

**Q.** What about the GI50 (OVCAR-5) of the same compound?
**A.** > 100 µM (inactive)

**Q.** And the GI50 (DMS-273)?
**A.** > 100 µM (inactive)

**Q.** What about the GI50 (MOLT-4) of the same compound?
**A.** > 100 µM (inactive)

**Q.** What about the GI50 (UO-31) of the same compound?
**A.** > 100 µM (inactive)

From ChEMBL document CHEMBL1201862, “PubChem BioAssay data set” (2004)
